Assay results from patent US20240409864A1, “Apparatus and Methods for Generating and Analyzing Three-Dimensional Cellular Materials” (Agilent Technologies, Inc., priority 2021, published 2024).

What was measured:
Panc1 spheroids [1] = experiment: Mitochondrial stress test, oxygen consumption rate (Seahorse XF); assay type: cell-based; settings: Panc1 spheroids assayed after 8 days; polished plate, 20 microliters Lipidure coating; FIG. 15
Description: (§3) A common test performed on the system described above is a mitochondrial stress test. In this assay a series of injections are delivered through the drug ports of the cartridge in order to measure the response of the biological sample to various compounds (oligomycin, FCCP, rotenone and antimycin). These compounds are preloaded into a drug reservoir (port) on the XF cartridge prior to execution of the assay. When the cartridge is inserted into the instrument it is coupled to a manifold which when activated by a solenoid valve, provides pneumatic pressure to the head space of the reservoir forcing the compound through a small orifice and into the well containing the biological sample.
First, Panc1/HepG2 cells were grown in the well plates generally contemplated by the present disclosure but with only a single concentric lip as well as commercially available plates, followed by the transfer of the spheroids cultured in the commercially available plates to the plates of the present disclosure. The experimental protocol was as follows: • 1. Add 50 ul of Lipidure solution (prepared in ETOH) to the plates. Leave overnight at 37 degrees C. or at 50 degrees C. for 1 hour for the ETOH to evaporate. • 2. Trypsinize the HepG2 with multiple washes of Mg—Ca free PBS to make single cells. Leave in incubator at 37 deg C. for 2-3 mins. • 3. […]

HepG2 spheroids = experiment: as above; assay type: cell-based; settings: HepG2 spheroids assayed after 6 days, 50 microliters Lipidure coating
Description: as §3
The experimental protocol was as follows: • 1. Add 50 ul of Lipidure solution (prepared in ETOH) to the plates. Leave overnight at 37 degrees C. or at 50 degrees C. for 1 hour for the ETOH to evaporate. • 2. Trypsinize the HepG2 with multiple washes of Mg—Ca free PBS to make single cells. Leave in incubator at 37 deg C. for 2-3 mins. • 3. Transfer cells to centrifugal tube and add PBS to fill half the tube then count cells based on density prior to centrifugation. • 4. Centrifuge the cell suspension and resuspend the pellet in fresh medium. • 5. Add 10K cells per well with fresh growth medium (180 ul per well) • 6. Centrifuge, if necessary, at 1000 rpm for 2-3 minutes with low deceleration. Centrifugation helps the cells to come together, if needed. • 7. When desirable tight clusters are formed (3-5 days), proceed with the Seahorse XF assay. • 8. For HepG2, DMEM PH 7.4 media from Seahorse supplemented with glutamine, sodium pyruvate and glucose were used (same concentration as the growth medium). • 9. With a multiple channel, pull out about 150 microliters of spent medium and add 180 microliters of fresh Seahorse medium slowly sliding through the walls. • 10. Follow with 2-3 washes to dilute out the FBS from the wells. • 11. After every wash check if the spheroid is still in the center. The white spot of the spheroid is easily seen on dark lab counter tops. • 12. Follow known protocol for traditional oxygen consumption rate (OCR) assay based on the mitochondrial stress test described in detail above. • 13. Take before and after images to verify the spheroids remain centered throughout. • 14.
Further, and referring to FIGS. 16 and 17, the oxygen consumption rate was performed on wells 1-6 using the mitochondrial stress test described above using HepG2 spheroids generated and assayed after 6 days in a plate with the geometric configuration of the present disclosure.

C2C12 spheroids = C2C12 spheroids about 180 and 140 micrometers, final concentration 1 μM, BioFLOAT coating, no centrifugation
Description: (§1) Panc1, HepG2, and C2C12 cell lines were used to form spheroids in an apparatus with wells having the geometry shown at least in FIGS. 2, 3, and 4 of the present disclosure. The wells were coated with either Lipidure® or BioFLOAT® ultra low adhesion coatings according to manufacturer protocols, after which the cell lines were introduced to the well plates and spheroids were formed according to the following protocol: • Apply ULA coatings according to manufacturer's protocols • Use trypsin to detach cells of interest (C2C12, Panc1, or HepG2) and create a single cell suspension • Deactivate trypsin via addition of complete culture media • Perform a cell count • Centrifuge the cell suspension at 250 G for 5 minutes and resuspend the pellet in fresh medium at the required density. • Add 300-1500 cells per well with fresh growth medium to a final volume of 200 ul per well • Centrifuge, if necessary, at 250 G for 5 minutes with low deceleration. Centrifugation helps the cells to come together, if needed. • When desirable tight clusters are formed (typically 3-5 days), proceed with the Seahorse XF assay. • DMEM PH 7.4 media from Seahorse supplemented with glutamine, sodium pyruvate and glucose were used (same concentration as the growth medium). • With a multiple channel, pull out about 100 microliters of spent medium and add 100 microliters of fresh Seahorse medium slowly sliding through the walls. • Follow with 3-5 washes to dilute out the old media from the wells. • Perform desired Seahorse assay-Basal, Mito Stress Test, FCCP addition, or others.
(§2) Next, C2C12 and Panc1 cells were seeded in BioFLOAT® coated spheroid plates as contemplated by the present disclosure at two different concentrations. The cells were allowed to settle without centrifugation and form spheroids for two days. […] The largest cross-sectional diameter was measured to characterize the size of the spheroids.

Panc1 spheroids [2] = settings: Panc1 spheroids about 325 and 250 micrometers, final concentration 1 μM, BioFLOAT coating, no centrifugation
Description: as §1, §2

Compound | oxygen consumption rate response (Panc1 spheroids [1]) | oxygen consumption rate response (HepG2 spheroids; polished plate, FIG. 19) | oxygen consumption rate response (HepG2 spheroids; unpolished plate, FIG. 17) | oxygen consumption rate (OCR) after injection (C2C12 spheroids; FIG. 44) | extra cellular acidification rate (ECAR) after injection (C2C12 spheroids; FIG. 45) | oxygen consumption rate (OCR) after injection (Panc1 spheroids [2]; FIG. 42) | extra cellular acidification rate (ECAR) after injection (Panc1 spheroids [2]; FIG. 43)
FCCP | good response | good response | good response | increased | increased | increased | increased
CC[C@H]1/C=C/C=C/C[C@@H](C)[C@H](O)[C@@](C)(O)C(=O)[C@@H](C)[C@H](O)[C@@H](C)C(=O)[C@@H](C)[C@H](O)[C@@H](C)/C=C/C(=O)O[C@@H]2[C@H](C)[C@H](CC1)O[C@]1(CC[C@H](C)[C@H](C[C@@H](C)O)O1)[C@H]2C [oligomycin] | did not show the dip on oxygen consumption | good response | good response | – | – | – | –
